One may read the IC50 as the point on the concentration scale where inhibition reaches its midpoint. Usually Ki stands for a measure of affinity in units of concentration, obtained from inhibition or displacement.

The results in this text go back to paper PMC7150891, “Mertansine Inhibits mRNA Expression and Enzyme Activities of Cytochrome P450s and Uridine 5′-Diphospho-Glucuronosyltransferases in Human Hepatocytes and Liver Microsomes” (Pharmaceutics, 2020).

Entries after “also recorded” stand apart in the source; their conditions may differ.

Data set [1] deals with CYP2B6. Description: CYP2B6-catalyzed bupropion hydroxylase activity in human hepatocytes after 48 h treatment. The procedure:
Samples were incubated for 48 h at 37 °C in 5% CO2, and the medium was exchanged with 250 μL of fresh medium containing drugs or the vehicle every 24 h.
The effects of mertansine on CYP1A2, CYP2B6, and CYP3A4 activities were evaluated. […] Mixtures were vortexed for 2 min and then centrifuged at 13,000 g for 4 min at 4 °C. The supernatant (40 µL) was diluted with 60 µL of deionized water and then mixed for 2 min by vortexing. An aliquot (5 µL) was analyzed using LC-MS/MS [37], and CYP1A2, CYP2B6, and CYP3A4 enzyme activities were expressed as formation rates (pmol/million cells/min).
The percentage changes in enzymatic activities were calculated as (CYP activity with test compound treatment/CYP activity with vehicle control treatment) × 100. The IC50 (the concentration of the inhibitor needed for half-maximal inhibition) values were calculated using SigmaPlot ver. […] Ki (the inhibition constant) and the inhibition mode of UGT1A1, UGT1A3, and UGT1A4 activities were determined using Enzyme Kinetics ver. 1.1 (Systat Software, Inc.).

Data set [2] relates to UGT1A9 mRNA. Description: UGT1A9 mRNA level in human hepatocytes after 48 h treatment (RT-PCR). Conditions: plated cryopreserved human hepatocytes, IC50, suppression of UGT1A9 mRNA expression, 1.25–2500 nM.
Data set [3] has as its target T1, UGT1A1 (Homo sapiens, UniProt P22309).
T1 construct: ultrapooled human liver microsomes (0.2 mg/mL); from tissue; host or cells: human liver microsomes (ultrapooled)
T1 sequence (P22309 26-533): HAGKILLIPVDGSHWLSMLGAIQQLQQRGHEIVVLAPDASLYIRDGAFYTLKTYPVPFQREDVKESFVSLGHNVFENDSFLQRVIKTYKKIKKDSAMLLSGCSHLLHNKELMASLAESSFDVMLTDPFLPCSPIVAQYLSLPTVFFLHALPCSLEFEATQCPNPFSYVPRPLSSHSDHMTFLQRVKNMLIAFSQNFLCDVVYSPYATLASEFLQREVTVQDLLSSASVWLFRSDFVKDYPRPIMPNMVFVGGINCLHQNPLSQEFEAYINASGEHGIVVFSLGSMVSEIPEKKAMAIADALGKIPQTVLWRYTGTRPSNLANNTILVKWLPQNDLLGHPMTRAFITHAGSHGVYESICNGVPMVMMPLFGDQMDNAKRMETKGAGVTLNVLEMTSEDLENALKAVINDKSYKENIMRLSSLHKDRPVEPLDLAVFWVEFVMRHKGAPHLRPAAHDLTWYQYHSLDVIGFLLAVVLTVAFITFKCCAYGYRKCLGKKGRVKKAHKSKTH
The experiment in a line: Inhibition of UGT1A1-catalyzed SN-38 glucuronidation in ultrapooled human liver microsomes. It counts as in vitro ADME. The procedure:
The inhibitory potential of mertansine on UGT1A1, UGT1A3, UGT1A4, UGT1A6, UGT1A9, and UGT2B7 activities was evaluated using liquid chromatography–tandem mass spectrometry (LC-MS/MS) with a cocktail of UGT substrates and ultrapooled human liver microsomes. Each incubation mixture was prepared to a final volume of 100 μL as follows: ultrapooled human liver microsomes (0.2 mg/mL), 5 mM UDPGA, 10 mM magnesium chloride, alamethicin (25 μg/mL), 50 mM Tris buffer (pH 7.4), various concentrations of mertansine in methanol (final concentrations of 0.01–50 μM), and the cocktail sets of UGT enzyme-specific substrates. Two cocktail sets were used: set A contained 0.5 μM SN-38 for UGT1A1, 2 μM chenodeoxycholic acid for UGT1A3, and 0.5 μM trifluoperazine for UGT1A4; and set B contained 1 μM N-acetylserotonin for UGT1A6, 0.2 μM mycophenolic acid for UGT1A9, and 1 μM naloxone for UGT2B7. The reactions were initiated by adding UDPGA and incubated in a shaking water bath for 60 min at 37 °C. […] Next, 50 μL of each supernatant of sets A and B was mixed, and aliquots (5 μL) were analyzed using LC-MS/MS. […]
The LC-MS/MS system was comprised of an Agilent 6495 triple quadrupole mass spectrometer coupled with an Agilent 1290 Infinity system (Agilent Technologies, Wilmington, DE, USA). […] The electrospray ionization (ESI) source settings in both positive and negative ion modes were as follows: gas temperature, 200 °C; gas flow, 14 L/min; nebulizer, 40 psi; sheath gas temperature, 380 °C; sheath gas flow, 11 L/min; capillary voltage, 4500 V; and nozzle voltage, 500 V. Each metabolite was quantified via selected reaction monitoring in the negative ion mode (chenodeoxycholic acid 24-acyl-β-glucuronide, m/z 567.1 to 391.2; mycophenolic acid β-D-glucuronide, m/z 495.0 to 319.0; propofol glucuronide (IS), m/z 353.0 to 177.0) and in the positive ion mode (SN-38 glucuronide, m/z 568.9 to 392.9; trifluoperazine N-β-D-glucuronide, m/z 583.9 to 407.9; N-acetylserotonin β-D-glucuronide, m/z 394.0 to 219.0; naloxone 3-β-D-glucuronide, m/z 503.9 to 309.9; meloxicam (IS), m/z 351.9 to 115.0). […]

As to `COc1cc2cc(c1Cl)N(C)C(=O)CC(OC(=O)C(C)N(C)C(=O)CCS)C1(C)OC1C(C)C1CC(O)(NC(=O)O1)C(OC)C=CC=C(C)C2` (stereo not drawn) [mertansine, Mertansine], the “Mean decrease of CYP2B6-mediated bupropion hydroxylase activity” value in data set [1] (highest concentration (2500 nM), 48 h, mean of three human hepatocytes) worked out at 63.5%. Also, the “Decrease of CYP2B6-mediated bupropion hydroxylase activity compared to vehicle” value in data set [1] (mertansine 48 h, three human hepatocytes) is given as 23.9–93.1%. The half-inhibitory concentration (IC50) at 48 h in data set [2] (Mean ± SD of three human hepatocyte lots, 48 h) is 54.1 ± 29.1 nM; in data set [2] (human hepatocytes Lot 319, 48 h), 86.9 nM; in data set [2] (human hepatocytes Lot 321, 48 h) it was 31.4 nM; in data set [2] (human hepatocytes Lot 361, 48 h), 44.1 nM. For the same compound, the “Inhibition Mode, UGT1A1” value in data set [3] (human liver microsomes, Dixon plot) was “noncompetitively inhibited; also recorded: noncompetitive inhibitor”. The same compound came in with a Ki in data set [3] (human liver microsomes, SN-38 0.2–2 µM) of 13500 nM. In data set [3] (ultrapooled human liver microsomes, 0.5 µM SN-38 (cocktail)), this compound had an IC50 of 16200 nM.
